The results in this text go back to US20100292205A1, “Pyrimidone Compounds As GSK-3 Inhibitors” (PFIZER INC., priority 2006, published 2010).

In one assay the target is T1, Recombinant human GSK3β (Homo sapiens, UniProt P49841).
T1 construct: His-tag; made in house; host or cells: Sf9 insect cells / baculovirus
T1 sequence (P49841 whole entry): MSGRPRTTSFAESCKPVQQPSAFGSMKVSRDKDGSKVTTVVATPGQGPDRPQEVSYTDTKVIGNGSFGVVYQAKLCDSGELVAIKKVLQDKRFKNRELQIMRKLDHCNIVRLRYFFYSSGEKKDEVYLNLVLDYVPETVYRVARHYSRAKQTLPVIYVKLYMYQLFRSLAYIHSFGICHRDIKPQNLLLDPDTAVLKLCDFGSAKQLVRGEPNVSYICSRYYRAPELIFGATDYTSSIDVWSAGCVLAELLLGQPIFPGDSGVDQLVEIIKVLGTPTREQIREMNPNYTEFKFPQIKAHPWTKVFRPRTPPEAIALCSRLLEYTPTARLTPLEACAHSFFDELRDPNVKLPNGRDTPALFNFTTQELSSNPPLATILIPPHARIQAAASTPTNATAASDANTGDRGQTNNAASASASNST
Briefly: GSK-3β (Glycogen Synthase Kinase) cell free enzyme assay. It is filed as biochemical. The note with it: 1 μM; Examples 157-199; read-out: Percent inhibition at 1 μM. An outline of the steps: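 Recombinant human GSK3β, expressed in SF9/baculovirus cells and His-tag purified on Ni-NTA Superflow, was preincubated with test agent for 30 minutes at room temperature. Substrate mix was then added to start the reaction in 8 mM MOPS (pH 7.0), 10 mM magnesium acetate, 0.2 mM EDTA, 1 mM DTT, 2 uM cold ATP, 0.025 uCi/well [33P]ATP (120 uL) and 1.0 uM biotinylated peptide. Reactions ran at RT for 60 min.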
For the molecule `Cn1c(NCC2CCN(S(=O)(=O)c3ccccc3)C2)nc(-c2ccncc2)cc1=O` (centres unmarked) [Example 191, 3-Methyl-2-({[1-(phenylsulfonyl)pyrrolidin-3-yl]methyl}amino)-6-pyridin-4-ylpyrimidin-4(3H)-one], the inhibition (in general, how much of the control response was suppressed) at 1 µM turned out to be 76%. On the same count and under the same terms, with `Cn1c(N[C@@H]2CN(S(C)(=O)=O)C[C@@H]2F)nc(-c2ccncc2)cc1=O` [Example 161, 2-{[(3R,4S)-4-Fluoro-1-(methylsulfonyl)pyrrolidin-3-yl]amino}-3-methyl-6-pyridin-4-ylpyrimidin-4(3H)-one] the figure was 93%; with `CCN(C[C@H]1CCCN1S(=O)(=O)c1ccccc1)c1nc(-c2ccncc2)cc(=O)n1C` [Example 189, 2-(Ethyl{[(2R)-1-(phenylsulfonyl)pyrrolidin-2-yl]methyl}amino)-3-methyl-6-pyridin-4-ylpyrimidin-4(3H)-one], 95%.

The same assay, now with this note: 1 μM; Examples 201-221; read-out: Percent inhibition at 1 μM.
Regarding `COC(=O)N1C[C@H](Nc2nc(-c3ccncc3)cc(=O)n2C)[C@@H](F)C1` [Example 207, Methyl (3S,4S)-3-fluoro-4-[(1-methyl-6-oxo-4-pyridin-4-yl-l6-dihydropyrimidin-2-yl)amino]pyrrolidine-1-carboxylate], the inhibition at 1 µM was 74%. On the same count and under the same terms, to `COC(=O)N1CCC(N(C)c2nc(-c3ccncc3)cc(=O)n2C)C1` (centres unmarked) [Example 213, Methyl 3-[methyl(1-methyl-6-oxo-4-pyridin-4-yl-16-dihydropyrimidin-2-yl)amino]pyrrolidine-1-carboxylate] belongs 95%.

Staying with this assay, now noted: 1 μM; Examples 236-262; read-out: Percent inhibition at 1 μM.
Take `CCN(c1nc(-c2ccncc2)cc(=O)n1C)C1CCCN(C)CC1` (centres unmarked) [Example 247, 2-[Ethyl(1-methylazepan-4-yl)amino]-3-methyl-6-pyridin-4-ylpyrimidin-4(3H)-one]: the inhibition at 1 µM was 78%. With `CCN(c1nc(-c2ccncc2)cc(=O)n1C)C1CCN(Cc2ccccc2)CC1` [Example 260, 2-[(1-Benzylpiperidin-4-yl)(ethyl)amino]-3′-methyl-6-pyridin-4-ylpyrimidin-4(3H)-one], the inhibition at 1 µM was 44%.

For the molecule `CN1C[C@H]2CC[C@@H](C1)N2c1nc(-c2ccncc2)cc(=O)n1C` [Example 239, 3-Methyl-2-[(1R,5S)-3-methyl-38-diazabicyclo[3.2.1]oct-8-yl]-6-pyridin-4-ylpyrimidin-4(3H)-one], the inhibition at 1 µM came to 57%. Same read-out and setting: to `CCN(c1nc(-c2ccncc2)cc(=O)n1C)C1CCN(Cc2ccccc2)C1` (centres unmarked) [Example 257, 2-[(1-Benzylpyrrolidin-3-yl)(ethyl)amino]-3-methyl-6-pyridin-4-ylpyrimidin-4(3H)-one] belongs 71%; to `CN(c1nc(-c2ccncc2)cc(=O)n1C)[C@H]1CC[C@H]2N(Cc3ccccc3)CC[C@@]2(C)C1` [Example 254, 2-{[(3a,S5,S7,aR)-1-Benzyl-3a-methyloctahydro-1H-indol-5-yl](methyl)amino}-3-methyl-6-pyridin-4-ylpyrimidin-4(3H)-one], 47%.

The same assay, now with this note: 1 μM; GSK-3β cell free enzyme assay; Examples 42-60.
Consider “2-{[(3a,S5,S7,aR)-1- Acetyl-3a- methyloctahydro-1H- indol-5- yl](methyl)amino}-3- methyl-6-pyridin-4- ylpyrimidin-4(3H)-one [Example 50]”, for which the “Percent inhibition at 1 μM” value is listed as 82%.

Still in this assay, the particulars now being: 1 μM; GSK-3β cell free enzyme assay; Examples 42-60; read-out: Percent inhibition at 1 μM.
For the molecule `CC(=O)N1[C@@H]2CC[C@H]1CN(c1nc(-c3ccncc3)cc(=O)n1C)C2` [Example 44, 2-[(1R,5S)-3-Acetyl-38-diazabicyclo[3.2.1]oct-8-yl]-3-methyl-6-pyridin-4-ylpyrimidin-4(3H)-one], the inhibition at 1 µM worked out at 72%. On the same count and under the same terms, to `CC(=O)N1CCCCC(Nc2nc(-c3ccncc3)cc(=O)n2C)C1` (centres unmarked) [Example 46, 2-[(1-Acetylazepan-3-yl)amino]-3-methyl-6-pyridin-4-ylpyrimidin-4(3H)-one] belongs 51%.

Regarding `CC(=O)N1CCCC(Nc2nc(-c3ccncc3)cc(=O)n2C)C1` (centres unmarked) [Example 48, 2-[(1-Acetylpiperidin-3-yl)amino]-3-methyl-6-pyridin-4-ylpyrimidin-4(3H)-one], the inhibition at 1 µM amounted to 55%.

The same assay, now with this note: cell free enzyme assay; Examples 1-35.
Consider `CN(c1nc(-c2ccncc2)cc(=O)n1C)[C@H]1CC[C@H]2NCC[C@@]2(C)C1` [Example 23, 3-methyl-2-{Methyl[(3aS,5S,7aR)-3a-methyloctahydro-1H-indol-5-yl]amino}-6-pyridin-4-ylpyrimidin-4(3H)-one], for which the IC50 (usually the midpoint of a concentration-inhibition curve) came to 47 nM.

Still in this assay, the particulars now being: cell free enzyme assay; Examples 62-155.
With `CCC(=O)N1C[C@@H]2[C@H](C1)[C@H]2N(C)c1nc(-c2ccncc2F)cc(=O)n1C` [Example 135, 6-(3-Fluoropyridin-4-yl)-3-methyl-2-{methyl[(1R,5S,6s)-3-propionyl-3-azabicyclo[3.1.0]hex-6-yl]amino}pyrimidin-4(3H)-one], the IC50 stood at 5.46 nM.

Regarding `CCN(C[C@H]1CCCN1C(=O)Cc1ccccc1)c1nc(-c2ccncc2)cc(=O)n1C` [Example 94, 2-(Ethyl{[(2R)-1-(phenylacetyl)pyrrolidin-2-yl]methyl}amino)-3-methyl-6-pyridin-4-ylpyrimidin-4(3H)-one], the IC50 stood at 18.2 nM. Same read-out and setting: with `CN(c1nc(-c2ccncc2F)cc(=O)n1C)[C@H]1[C@@H]2CN(C(=O)c3ccoc3)C[C@@H]21` [Example 105, 6-(3-Fluoropyridin-4-yl)-2-{[(1R,5S,6s)-3-(3-furoyl)-3-azabicyclo[3.1.0]hex-6-yl](methyl)amino}-3-methylpyrimidin-4(3H)-one] the figure was 8.81 nM. Still for that read-out and setting: with `CN(c1nc(-c2ccncc2F)cc(=O)n1C)[C@H]1[C@@H]2CN(C(=O)c3ccc(C(F)(F)F)cc3)C[C@@H]21` [Example 122, 6-(3-Fluoropyridin-4-yl)-3-methyl-2-(methyl{(1R,5S,6s)-3-[4-(trifluoromethyl)benzoyl]-3-azabicyclo[3.1.0]hex-6-yl}amino)pyrimidin-4(3H)-one] the figure was 15.1 nM. Turning to `CN(c1nc(-c2ccncc2F)cc(=O)n1C)[C@H]1[C@@H]2CN(C(=O)CC(C)(C)C)C[C@@H]21` [Example 131, 2-{[(1R,5S,6s)-3-(3,3-Dimethylbutanoyl)-3-azabicyclo[3.1.0]hex-6-yl](methyl)amino}-6-(3-fluoropyridin-4-yl)-3-methylpyrimidin-4(3H)-one], the IC50 was determined as 1.57 nM.

Regarding `CN(c1nc(-c2ccncc2F)cc(=O)n1C)[C@H]1[C@@H]2CN(C(=O)c3cnn(C)c3Cl)C[C@@H]21` [Example 120, 2-[{(1R,5S,6s)-3-[(5-Chloro-1-methyl-1H-pyrazol-4-yl)carbonyl]-3-azabicyclo[3.1.0]hex-6-yl}(methyl)amino]-6-(3-fluoropyridin-4-yl)-3-methylpyrimidin-4(3H)-one], the IC50 is 4.52 nM. In the case of `CN(c1nc(-c2ccncc2F)cc(=O)n1C)[C@H]1[C@@H]2CN(C(=O)CC(F)(F)F)C[C@@H]21` [Example 97, 6-(3-Fluoropyridin-4-yl)-3-methyl-2-{methyl[(1R,5S,6s)-3-(3,3,3-trifluoropropanoyl)-3-azabicyclo[3.1.0]hex-6-yl]amino}pyrimidin-4(3H)-one], the IC50 came out at 55.4 nM. The same measure, in the same setting: with `COC(=O)CCCC(=O)N1C[C@@H]2[C@H](C1)[C@H]2N(C)c1nc(-c2ccncc2F)cc(=O)n1C` [Example 143, Methyl 5-[(1R,5S,6s)-6-{[4-(3-fluoropyridin-4-yl)-1-methyl-6-oxo-1,6-dihydropyrimidin-2-yl](methyl)amino}-3-azabicyclo[3.1.0]hex-3-yl]-5-oxopentanoate] the figure was 57.4 nM; with `CCC(C)C(=O)N1C[C@@H]2[C@H](C1)[C@H]2N(C)c1nc(-c2ccncc2F)cc(=O)n1C` (stereo partly drawn) [Example 103, 6-(3-Fluoropyridin-4-yl)-3-methyl-2-{methyl[(1R,5S,6s)-3-(2-methylbutanoyl)-3-azabicyclo[3.1.0]hex-6-yl]amino}pyrimidin-4(3H)-one], 2.77 nM.

Still in this assay, the particulars now being: cell free enzyme assay; Examples 222-234.
In the case of `COC(=O)N1CCC[C@@H](Nc2nc(-c3ccncc3)cc(=O)n2C)C1` [Example 232, Methyl (3R)-3-[(1-methyl-6-oxo-4-pyridin-4-yl-1,6-dihydropyrimidin-2-yl)amino]piperidine-1-carboxylate], the IC50 came out at 0.854 nM.

Still in this assay, the particulars now being: cell free enzyme assay; Examples 265-291.
On to `CN(c1nc(-c2ccncc2F)cc(=O)n1C)[C@H]1[C@@H]2CN(c3nc4cc(F)ccc4n3C)C[C@@H]21` [Example 266, 2-{[(1R,5S,6s)-3-(5-Fluoro-1-methyl-1H-benzimidazol-2-yl)-3-azabicyclo[3.1.0]hex-6-yl](methyl)amino}-6-(3-fluoropyridin-4-yl)-3-methylpyrimidin-4(3H)-one], for which the IC50 was found to be 16.7 nM.

In the case of `CN(c1nc(-c2ccncc2F)cc(=O)n1C)[C@H]1[C@@H]2CN(c3nc(C(F)(F)F)c(C(=O)OCc4ccccc4)s3)C[C@@H]21` [Example 268, Benzyl 2-[(1R,5S,6s)-6-{[4-(3-fluoropyridin-4-yl)-1-methyl-6-oxo-1,6-dihydropyrimidin-2-yl](methyl)amino}-3-azabicyclo[3.1.0]hex-3-yl]-4-(trifluoromethyl)-1,3-thiazole-5-carboxylate], the IC50 was determined as 126 nM. Still for that read-out and setting: to `COc1ccc2oc(N3C[C@@H]4[C@H](C3)[C@H]4N(C)c3nc(-c4ccncc4F)cc(=O)n3C)nc2c1` [Example 267, 6-(3-Fluoropyridin-4-yl)-2-{[(1R,5S,6s)-3-(5-methoxy-1,3-benzoxazol-2-yl)-3-azabicyclo[3.1.0]hex-6-yl](methyl)amino}-3-methylpyrimidin-4(3H)-one] belongs 14.2 nM; to `COCC(C)n1nnnc1N1C[C@@H]2[C@H](C1)[C@H]2N(C)c1nc(-c2ccncc2F)cc(=O)n1C` (stereo partly drawn) [Example 287, 6-(3-Fluoropyridin-4-yl)-2-[{(1R,5S,6s)-3-[1-(2-methoxy-1-methylethyl)-1H-tetrazol-5-yl]-3-azabicyclo[3.1.0]hex-6-yl}(methyl)amino]-3-methylpyrimidin-4(3H)-one], 3.06 nM.
